Source: article PMC9597602, “Metal Complexes as Antifungals? From a Crowd-Sourced Compound Library to the First In Vivo Experiments” (JACS Au, 2022)
Like-named read-outs stand apart in the source and are kept apart here.

Tests used:
[1] = tested on: HEK-293 human embryonic kidney cells ATCC CRL-1573
Experimental: The cells were incubated together with the compounds for 20 h at 37 °C in 5% CO2. […] Tamoxifen (Sigma T5648) was used as internal control on each plate.

[2] = tested on: Cryptococcus deuterogattii CBS7750 VGII; Serotype B; assay: Antifungal MIC assay, extended panel; type: cell-based; settings: extended panel, second batch; ≥80 or ≥50% inhibition
Outline: (§1)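 Colonies from 3-day YPD plates (30 °C) were suspended, diluted into YNB and added to compound plates at a final density of 2.5 × 10^3 CFU/mL. After 36 h at 35 °C without agitation, growth inhibition of ≥80% defined the MIC. Two technical replicates, 2–4 independent runs.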

[3] = tested on: Candida glabrata ATCC 90030 NCCLS 84; assay: Antifungal MIC assay, extended panel; type: cell-based; settings: extended panel, second batch; ≥80 or ≥50% inhibition
Outline: as §1

[4] = tested on: Candida tropicalis ATCC 750; assay: Antifungal MIC assay, extended panel; type: cell-based; settings: extended panel, second batch; ≥80 or ≥50% inhibition
Outline: as §1

[5] = tested on: Cryptococcus deuterogattii ATCC 32609 VGII; assay: Antifungal MIC assay, extended panel; type: cell-based; settings: extended panel, second batch; ≥80 or ≥50% inhibition
[6] = tested on: Pseudomonas aeruginosa ATCC 27853 QC control strain; assay: CO-ADD antibacterial MIC assay; type: cell-based; settings: initial CO-ADD dose-response screening; ≥80% growth inhibition
Outline: (§2)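 Broth microdilution: compounds exposed for 18 h at 37 °C, static, to 5 × 10^5 CFU/mL of mid-log bacteria in cation-adjusted MH broth. OD600 defines MIC as lowest concentration with ≥80% inhibition; n = 4 (2 technical × 2 biological).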

[7] = tested on: Escherichia coli ATCC 25922 FDA control strain; assay: CO-ADD antibacterial MIC assay; type: cell-based; settings: initial CO-ADD dose-response screening; ≥80% growth inhibition
Outline: as §2

[8] = tested on: Acinetobacter baumannii ATCC 19606 type strain; assay: CO-ADD antibacterial MIC assay; type: cell-based; settings: initial CO-ADD dose-response screening; ≥80% growth inhibition
Outline: as §2

[9] = tested on: methicillin-resistant Staphylococcus aureus ATCC 43300; assay: CO-ADD antibacterial MIC assay; type: cell-based; settings: initial CO-ADD dose-response screening; ≥80% growth inhibition
Outline: as §2

human red blood cells = type: cell-based
Outline: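 Washed human erythrocytes at 0.5 × 10^8 cells/mL incubated with compound, then centrifuged. Haemolysis read as supernatant OD405, normalised to untreated cells (0%) and 1% Triton X-100 (100%), with melittin as internal plate control.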

[10] = tested on: Candida albicans ATCC 90028 NCCLS11; assay: Antifungal MIC assay; type: cell-based; settings: for MIC Ca: initial CO-ADD dose-response screening, ≥80% growth inhibition; for MIC50 Candida albicans ATCC 90028: 50% inhibition, MIC score 2
Outline: as §1

[11] = tested on: Candida auris CBS12373 KCTC 17810; assay: Antifungal MIC assay, extended panel; type: cell-based; settings: extended panel; for MIC Candida auris CBS12373 / MIC: second batch, ≥80 or ≥50% inhibition; for MIC: read-out: MIC* Candida auris CBS12373; for MIC50 Candida auris CBS12373: 50% inhibition, MIC score 2
Outline: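 This broth microdilution MIC test followed the reference method for antifungal susceptibility testing of yeasts. Fluconazole served as the internal control on every plate. Inoculum came from 3-day YPD agar cultures, was diluted in YNB to 2.5 × 10^3 CFU/mL in 50 μL per well of 384-well plates, and was incubated 36 h at 35 °C. Compounds ran as two technical replicates across two to four independent assays.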

[12] = tested on: Candida auris CBS10913 JCM 15448; assay: Antifungal MIC assay, extended panel; type: cell-based; settings: extended panel; for MIC Candida auris CBS10913 / MIC: second batch, ≥80 or ≥50% inhibition; for MIC: read-out: MIC* Candida auris CBS10913; for MIC50 Candida auris CBS10913: 50% inhibition, MIC score 2
Outline: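 This broth dilution MIC test for yeast used colonies cultured 3 days at 30 °C on YPD agar, suspended to 1 × 10^6 to 5 × 10^6 CFU/mL by OD530 and diluted with YNB. Cells were added at a final 2.5 × 10^3 CFU/mL (50 μL total) to 384-well plates with compound, incubated unshaken at 35 °C for 36 h, with fluconazole as an internal control on every plate.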

[13] = read-out: HEK293 CC50, ranges obtained upon retesting, new batch
[14] = read-out: HEK CC50, initial CO-ADD screening, 20 h
[15] = initial CO-ADD screening, 1 h, 10% hemolysis
[16] = ranges obtained upon retesting, new batch
[17] = extended panel, second batch, ≥80 or ≥50% inhibition

Compound	CC50 [1, 13] [µM]	CC50 [1, 14] [µM]	MIC Cryptococcus deuterogattii CBS7750 [2] [µM]	MIC Candida glabrata ATCC 90030 [3] [µM]	MIC Candida tropicalis ATCC 750 [4] [µM]	MIC Cryptococcus deuterogattii ATCC 32609 [5] [µM]	MIC Pa [6]	MIC Ec [7]	MIC Ab [8]	MIC MRSA (Sa) [9]	RBC HC10 (human red blood cells; [15])	RBC HC10 (human red blood cells; [16]) [µM]	MIC Candida albicans ATCC 90028 [10, 17] [µM]	MIC Ca [10]	MIC Candida auris CBS12373 [11] [µM]	MIC Candida auris CBS10913 [12] [µM]	HEK CC50 ([1]; initial CO-ADD screening, 20 h) [µg/mL]	MIC [3] [µM]	MIC [4] [µM]	MIC50 Candida albicans ATCC 90028 ([10]; extended panel) [µM]	also measured
CC(C)C([O][Pt][Cl])C1=CCCC=CCC1 (centres unmarked) [Pt4]	> 100	> 20	≤0.78 to 1.56	12.5 to 25	12.5 to 25	3.12 to 6.25	>20 µM	>20 µM	>20 µM	>20 µM	>20 µM	> 100	6.25 to 12.5	10 µM	1.56 to 3.12	6.25 to 12.5	–	–	–	–	–
CC(=NN=C(N)[S-])C(C)=NN=C(N)[S-].O=[N+]([O-])[O-].[Co+3].c1c[nH]cn1.c1c[nH]cn1 [Co1]	> 100	–	–	–	–	0.78 to 1.56	>32 µg/mL	>32 µg/mL	>32 µg/mL	>32 µg/mL	>32 µg/mL	> 100	0.78 to 1.56	0.5 µg/mL	0.39 to 0.78	0.39 to 0.78	>32	100	0.39	–	MIC [2]: 1.56 µM
Cc1ccc2ccc3ccc(C)nc3c2n1.Cc1ccc2ccc3ccc(C)nc3c2n1.O=C([O][Eu]([O]C(=O)c1ccccc1F)[O]C(=O)c1ccccc1F)c1ccccc1F [Eu1]	> 200	> 20	0.024 to 0.098	0.024 to 0.098	≤0.006 to 0.049	–	>20 µM	>20 µM	>20 µM	>20 µM	>20 µM	> 200	≤0.006 to 0.012	–	–	–	–	–	–	≤0.006 to 0.012	cytotoxicity: none up to stated concentration ([1]; retest): > 200 µM; MIC [5]: 0.024 µM; hemolysis: none up to stated concentration (human red blood cells; retest): > 200 µM; MIC [11]: 0.006 µM; MIC50 Candida auris CBS12373 [11]: ≤ 0.006 µM; MIC [12]: 0.006 µM; MIC50 Candida auris CBS10913 [12]: ≤ 0.006 µM
COc1ccc(/C=C/C2=NN(c3ccc(C(=O)[O][Ag])cc3)C(c3ccc(OC)c(OC)c3)C2)cc1OC.COc1ccc(/C=C/C2=NN(c3ccc(C(=O)[O][Ag])cc3)C(c3ccc(OC)c(OC)c3)C2)cc1OC (racemic) [Ag1, (Ε)-1-(4-Carboxyphenyl)-5-(3,4-dimethoxyphenyl)-3-(3,4-dimethoxystyryl)-2-pyrazoline silver(I) complex]	3 to 4	–	–	–	≤0.006 to 0.012	0.006 to 0.024	>32 µg/mL	>32 µg/mL	>32 µg/mL	>32 µg/mL	>32 µg/mL	13 to 154	–	≤0.25 µg/mL	–	–	>32	≤0.006	–	≤ 0.006	MIC [2]: 0.006 µM; MIC ([10]; extended panel, second batch, ≥80 or ≥50% inhibition, read-out: MIC* Candida albicans ATCC 90028): ≤0.006 µM; MIC [11]: ≤0.006 µM; MIC50 Candida auris CBS12373 [11]: ≤ 0.006 µM; MIC [12]: 0.006 µM; MIC50 Candida auris CBS10913 [12]: ≤ 0.006 µM
C1=CCCC=CCC1.[I][Pt][I] [Pt2]	> 100	> 20	≤0.78 to 3.13	–	–	6.25 to 12.5	>20 µM	>20 µM	>20 µM	0.625 µM	>20 µM	> 100	12.5 to 25	10 µM	3.13 to 6.25	–	–	50	50	–	MIC [12]: 12.5 µM
O=C([O][Ag])c1ccc(N2N=C(/C=C/C=C/c3ccccc3)CC2/C=C/c2ccccc2)cc1.O=C([O][Ag])c1ccc(N2N=C(/C=C/C=C/c3ccccc3)CC2/C=C/c2ccccc2)cc1 (racemic) [Ag2, 1-(4-Carboxyphenyl)-3-{(1E,3E)-4-phenylbuta-1,3-dien-1-yl}-5-{(E)-styryl}-2-pyrazoline silver(I) complex]	6 to 7	–	0.006 to 0.098	0.006 to 0.195	≤0.006 to 0.049	0.006 to 0.098	>32 µg/mL	>32 µg/mL	>32 µg/mL	>32 µg/mL	>32 µg/mL	> 200	≤0.006 to 0.098	≤0.25 µg/mL	0.006 to 0.098	0.006 to 0.098	>32	–	–	≤0.006 to 0.098	MIC50 Candida auris CBS12373 [11]: ≤0.006 to 0.098 µM; MIC50 Candida auris CBS10913 [12]: ≤0.006 to 0.049 µM
C1=CCCC=CCC1.[Cl][Pt][Cl] [Pt1]	> 100	> 20	1.56 to 3.13	–	–	3.125 to 6.25	>20 µM	>20 µM	>20 µM	1.25 µM	>20 µM	> 100	12.5 to 25	10 µM	–	6.25 to 12.5	–	25	25	–	MIC [11]: 3.13 µM
